Measurements reported in EPA's ToxValDB 9.5 (doi:10.2903/j.efsa.2008.125r).
Values after ≈ are worked out from the molar mass of the structure shown.

Key:
[1] = tested on: Tagia sp.; conditions: acute; duration: 14 days; mortality
[2] = tested on: Typhlodromus pyri
[3] = tested on: Anas platyrhynchos; conditions: for LD50: oral, mortality
[4] = tested on: Rattus norvegicus
[5] = tested on: Apis mellifera; conditions: acute; duration: 48 hours; oral; unspecified; mortality
[6] = tested on: Canidae; conditions: chronic; duration: 1 years; oral; Dog Other; hematological
[7] = tested on: Oncorhynchus mykiss; conditions: acute; duration: 96 hours; mortality
[8] = tested on: Daphnia magna; conditions: chronic/long-term; duration: 21 days; reproduction
[9] = tested on: Coturnix japonica; conditions: acute, oral, mortality
[10] = tested on: Colinus virginianus; conditions: for LD50: acute, oral, mortality

**Q.** Which results are given for `CCCCCCCCCCCCC1=C(OC(C)=O)C(=O)c2ccccc2C1=O` [Acequinocyl]?
**A.** LC50 [1]: > 1000 mg/kg; LEL ([2]; acute, duration: 7 days, mortality): 300 g/ha; LEL ([2]; not reported, reproduction): 300 g/ha; LD50 ([3]; acute, unspecified): > 1940 mg/kg; NOEL ([3]; reproductive): 7.48 mg/kg; LD50 ([3]; short-term, feed): > 1340 mg/kg; NOAEL ([4]; acute, oral, hematological): 8 mg/kg-day; LD50 ([4]; acute, oral, mortality): > 4860 mg/kg; NOAEL ([4]; chronic, duration: 2 years, clinical signs): 2.3 mg/kg-day; NOAEL ([4]; reproduction developmental, clinical signs): 6.9 mg/kg-day; LD50 [5]: > 100 µg/piece; NOAEL [6]: 5 mg/kg-day; LC50 [7]: 65 µg/mL (≈ 169 µM); NOEC [8]: 0.00098 mg/L; LD50 ([9]; diet): > 847 mg/kg; LD50 [9]: > 1940 mg/kg; LD50 ([10]; diet): > 159 mg/kg; LD50 [10]: > 300 mg/kg; NOEL ([10]; reproduction developmental): 217 mg/kg-day
